Molecules are shown by their SMILES.

A short description of the data set: Preliminary dosimetry estimate in patients. In kind it is in vivo, human.

Consider `N#C[C@@H]1CCCN1C(=O)CNC(=O)c1ccnc2ccc(OCCCN3CCN(C(=O)CN4CCN(CC(=O)O)CCN(CC(=O)O)CCN(CC(=O)O)CC4)CC3)cc12` [FAPI-02], for which the “equivalent dose of an exam” value (200 MBq Ga-68) is recorded as 3-4 mSv. The effective dose (calculated with IDAC1/ICRP60) is 1.82E-02 mSv/MBq, the effective dose (calculated with IDAC2/ICRP103) is 1.79E-02 mSv/MBq and the effective dose (calculated with OLINDA) is 1.80E-02 mSv/MBq.

These data come from patent US20250127937A1, “FAP INHIBITOR” (UNIVERSITÄT HEIDELBERG, priority 2018, published 2025).
